Measurements from article PMC9959048, “Lipidation of Naturally Occurring α-Helical Antimicrobial Peptides as a Promising Strategy for Drug Design” (International Journal of Molecular Sciences, 2023).
Converted amounts (≈) assume the structure as drawn. Residues, ends and D or L forms follow the SMILES beside them. *: point of attachment. Decanoyl = CCCCCCCCCC(=O)*; Octanoyl = CCCCCCCC(=O)*

What was measured:
S. aureus PCM2054 = type: cell-based, Staphylococcus aureus; conditions: Mueller–Hinton broth, inoculum 5 × 10^5 CFU/mL, 24 h, 37 °C, absorbance 600 nm, triplicate
Protocol: (§1) The evaluation of the antimicrobial activity of the synthesized lipopeptides was performed against the following reference bacterial and fungal strains: Staphylococcus aureus PCM 1650, Staphylococcus aureus PCM 2054, Staphylococcus epidermidis PCM 521, Staphylococcus epidermidis PCM 2118, Escherichia coli PCM 2057, Candida albicans PCM 2566, Candida glabrata CCM 8270, Candida krusei CCM 8271, Candida parapsilosis CCM 8260.
(§2) For the initial cultivation of the bacteria and fungi, Luria-Bertani broth (LB, Biomaxima, Lublin, Poland) and Sabouraud Dextrose broth (SB, Biomaxima, Lublin, Poland) were used, respectively. Antimicrobial properties of the compounds were analyzed through the determination of MIC (minimal inhibitory concentrations) by my means of the serial micro-dilution technique according to the guidelines of Clinical & Laboratory Standard Institute (CLSI) established for aerobic bacteria and yeasts.
(§3) According to the procedures, Mueller–Hinton broth (MHB) was used as the working medium for the analysis of the bacterial susceptibility, while RPMI-1640 (with L-glutamine, without sodium bicarbonate) growth medium buffered with MOPS (morpholinepropanesulfonic acid) and supplemented with 2% glucose was used for the experiments with the fungi.
(§4) The experiments were carried out for 24 h at 37 and 35 °C for the bacteria and fungi, respectively. Then, the absorbance was measured at 600 nm for each well of the 96-well plate using a microplate reader (Sunrise TM, Tecan Trading AG, Männedorf, Switzerland). Based on the obtained results, the degree of inhibition of the growth of microorganisms (expressed in %) in the presence of the tested compounds range was determined with respect to the control probes. Inoculated wells without peptide were treated as a positive control (100% growth), and the wells containing working medium only were defined as a negative control (0% growth). All measurements were repeated in triplicate.

S. epidermidis PCM2118 = type: cell-based, Staphylococcus epidermidis; conditions: Mueller–Hinton broth, inoculum 5 × 10^5 CFU/mL, 24 h, 37 °C, absorbance 600 nm, triplicate
Protocol: as §1, §2, §3, §4

S. epidermidis PCM521 = type: cell-based, Staphylococcus epidermidis; conditions: Mueller–Hinton broth, inoculum 5 × 10^5 CFU/mL, 24 h, 37 °C, absorbance 600 nm, triplicate
Protocol: as §1, §2, §3, §4

E. coli PCM2057 = type: cell-based, Escherichia coli; conditions: Mueller–Hinton broth, inoculum 5 × 10^5 CFU/mL, 24 h, 37 °C, absorbance 600 nm, triplicate
Protocol: as §1, §2, §3, §4

C. albicans PCM2566 = type: cell-based, Candida albicans; conditions: RPMI-1640 with MOPS and 2% glucose, inoculum 5 × 10^3 CFU/mL, 24 h, 35 °C, absorbance 600 nm, triplicate
Protocol: as §1, §2, §3, §4

C. glabrata CCM8270 = type: cell-based, Candida glabrata; conditions: RPMI-1640 with MOPS and 2% glucose, inoculum 5 × 10^3 CFU/mL, 24 h, 35 °C, absorbance 600 nm, triplicate
Protocol: as §1, §2, §3, §4

C. krusei CCM8271 = type: cell-based, Candida krusei; conditions: RPMI-1640 with MOPS and 2% glucose, inoculum 5 × 10^3 CFU/mL, 24 h, 35 °C, absorbance 600 nm, triplicate
Protocol: as §1, §2, §3, §4

C. parapsilosis CCM 8260 = type: cell-based, Candida parapsilosis; conditions: RPMI-1640 with MOPS and 2% glucose, inoculum 5 × 10^3 CFU/mL, 24 h, 35 °C, absorbance 600 nm, triplicate
Protocol: as §1, §2, §3, §4

[1] = tested on: human breast cancer cells (MCF-7 line, ATCC); assay: MTT cytotoxicity assay; type: cell-based; conditions: IC50 against HaCaT divided by IC50 for MCF-7
Protocol: (§5) The prepared plates were further incubated for 48 h. […] The control cell viability was assumed to be 100%. Three independent experiments were carried out in three repetitions.

[2] = tested on: human prostate cancer cells (PC3 line, ATCC); assay: MTT cytotoxicity assay; type: cell-based; conditions: IC50 against HaCaT divided by IC50 for PC3
Protocol: as §5

POPC liposomes = assay: CD, α-helix content in POPC liposomes; type: physicochemical; conditions: 25 °C, peptide 0.15 mg/mL, 1.3 mM POPC; for α-Helix percentage, POPC: from ellipticity at 222 nm
Protocol: (§6) Large unilamellar vesicles (LUV) were obtained by extrusion of MLV liposomes through polycarbonate membrane filters with a pore diameter of 100 nm (Whatman International Ltd., Kent, UK) using a mini-extruder (Avanti Polar Lipids, Inc., Alabaster, AL, USA).
(§7) CD experiments were carried out at 25 °C using a Jasco J-815 spectropolarimeter in the wavelength range 185–260 nm. The concentration of the lipopeptides was 0.15 mg/mL. The CD spectra were recorded in water, PBS (pH 7.4), 1.3 mM POPC and 1.3 mM POPG. The results are plotted as the mean molar ellipticity per one amino acid residue (MRME, deg cm^2 dmol^−1) as a function of the wavelength (nm). Additionally, we performed a conformational analysis of the selected compounds in the presence of S. aureus cells. […] The mixtures were then incubated for 2 h before recording the CD spectra.
(§8) The percentage of the α-helical structure was calculated based on the mean molar ellipticity at 222 nm using the formula: fH=θ222−3000/−36000−3000·100% where θ222 corresponds to the value of the mean molar ellipticity at a wavelength of 222 nm.

POPG liposomes = assay: CD, α-helix content in POPG liposomes; type: physicochemical; conditions: 25 °C, peptide 0.15 mg/mL, 1.3 mM POPG, from ellipticity at 222 nm
Protocol: as §6, §7, §8

POPG LUVs = assay: Isothermal titration calorimetry, binding to POPG LUVs; conditions: ITC, 25 °C, 0.05 or 0.07 mM peptide titrated with 1.3 or 1.8 mM POPG LUVs; one set of sites model (C10-LL-I: two sets of sites, first line)
Protocol: as §6
The thermodynamic parameters of the interactions of the lipopeptides with POPG and POPC liposomes were determined by isothermal titration calorimetry (ITC). Measurements were performed at 25 °C using an AutoITC microcalorimeter (MicroCal Inc., Northampton, MA, USA) with a 1.4491 mL sample and reference cells. The experiment consisted in the titration of a buffered peptide solution with a concentration of 0.05 and/or 0.07 mM with a buffered solution containing POPG or POPC LUVs with a lipid concentration of 1.3 and 1.8 mM (10.02 µL; 29 injections, 2 µL for the first injection only), as it was described previously. The result of the titration was a thermogram showing a series of peaks corresponding to the titration steps. A titration curve was obtained after integration of the peak areas. The obtained isotherms were fitted to the “one set of sites” or “two sets of sites” models available in the ORIGIN 7.0 (MicroCal Inc., Northampton, MA, USA), which made it possible to determine the enthalpy (ΔH), the binding constant (KITC) and the stoichiometry (N) of the interactions between the lipopeptide and the lipids. The following formula was used to calculate the entropy change (ΔS) and the Gibbs free energy (ΔG): ΔG=−RTln(55.5KITC)=ΔH−TΔS where: factor 55.5 is the molar concentration of water, R is the gas constant (1.986 cal·mol^−1·K^−1), and T is the absolute temperature.

[3] = Dynamic light scattering of lipopeptide assemblies; type: physicochemical; conditions: DLS, sonicated 10 min, incubated 1 h, 90° side scatter
Protocol: The hydrodynamic diameters of the lipopeptide nanoaggregates were examined by the Litesizer 500 (Anton-Paar GmbH, Graz, Austria) at 25 °C. The measurements were carried out at various lipopeptide concentrations ranging from 0.5 to 2 mM and from 0.25 to 2 mM, in water and PBS, respectively. Two-fold serial dilutions were used to obtain the sequential concentrations. Each sample was sonicated for 10 min followed by incubation for 1 h at 25 °C and transferred to the polystyrene cuvette. The detector was positioned at a side scatter position (90°). The analysis of the obtained results and report generation was performed with KalliopeTM software (Anton-Paar GmbH, Graz, Austria).

Row | SMILES | MIC, S. aureus PCM2054 (S. aureus PCM2054) | MIC, S. epidermidis PCM2118 (S. epidermidis PCM2118) | MIC, S. epidermidis PCM521 (S. epidermidis PCM521) | MIC, E. coli PCM2057 (E. coli PCM2057) | MIC, C. albicans PCM2566 (C. albicans PCM2566) | MIC, C. glabrata CCM8270 (C. glabrata CCM8270) | MIC, C. krusei CCM8271 (C. krusei CCM8271) | MIC, C. parapsilosis CCM 8260 (C. parapsilosis CCM 8260) | SI MCF-7 [1] | SI PC3 [2] | θ222/θ208, POPC (POPC liposomes) | α-Helix percentage, POPC (POPC liposomes) | α-Helix percentage, POPG (POPG liposomes) | pKITC, POPG (POPG LUVs) | hydrodynamic diameter, peak of highest scattering intensity ([3]; 0.25 mM in PBS pH 7.4, 25 °C) | hydrodynamic diameter, peak of highest scattering intensity ([3]; 0.5 mM salt-free aqueous solution, 25 °C) | hydrodynamic diameter ([3]; 2 mM in PBS pH 7.4, 25 °C)
1 | CCCCCCCC(=O)N[C@@H](CCCCN)C(=O)N[C@@H](CCCNC(=N)N)C(=O)N[C@@H](Cc1ccccc1)C(=O)N[C@@H](CCCCN)C(=O)N[C@@H](CCCCN)C(=O)N[C@@H](Cc1ccccc1)C(=O)N[C@@H](Cc1ccccc1)C(=O)N[C@@H](CCCCN)C(=O)N[C@@H](CCCCN)C(=O)N[C@@H](CC(C)C)C(=O)N[C@@H](CCCCN)C(N)=O [C8-ATRA-1] (Octanoyl-KRFKKFFKKLK-NH2) | 7.8 µg/mL (≈ 4.81 µM) | 3.13 µg/mL (≈ 1.93 µM) | 3.13 µg/mL (≈ 1.93 µM) | >50 µg/mL | >50 µg/mL | >50 µg/mL | 12.5 µg/mL (≈ 7.7 µM) | 50 µg/mL (≈ 30.8 µM) | 8.55 | 2.29 | 0.38 | 11% | 20% | 5.78 ± 0.27 | – | – | –
2 | CCCCCCCCCC(=O)N[C@@H](CCCCN)C(=O)N[C@@H](CCCNC(=N)N)C(=O)N[C@@H](Cc1ccccc1)C(=O)N[C@@H](CCCCN)C(=O)N[C@@H](CCCCN)C(=O)N[C@@H](Cc1ccccc1)C(=O)N[C@@H](Cc1ccccc1)C(=O)N[C@@H](CCCCN)C(=O)N[C@@H](CCCCN)C(=O)N[C@@H](CC(C)C)C(=O)N[C@@H](CCCCN)C(N)=O [C10-ATRA-1] (Decanoyl-KRFKKFFKKLK-NH2) | 3.9 µg/mL (≈ 2.36 µM) | 3.13 µg/mL (≈ 1.9 µM) | 3.13 µg/mL (≈ 1.9 µM) | 31.25 µg/mL (≈ 18.9 µM) | 50 µg/mL (≈ 30.3 µM) | >50 µg/mL | 12.5 µg/mL (≈ 7.57 µM) | 25 µg/mL (≈ 15.1 µM) | 9.47 | 3.92 | 0.65 | 14% | 17% | 7.06 ± 0.61 | 2808 ± 1193 nm | 284 ± 105 nm | 1040 ± 343 nm
